# Test results: EPA's ToxValDB 9.5 (doi:10.2903/j.efsa.2009.269r)
# Experiments:
# Anas platyrhynchos = conditions: acute; oral; unspecified; mortality
# Apis mellifera = conditions: acute; duration: 48 hours; dermal; mortality
# Bibionidae = conditions: chronic/long-term; duration: 28 days
# Canidae = conditions: chronic; duration: 1 years; oral; Dog Other; organ weight
# Daphnia magna = conditions: chronic/long-term; duration: 21 days; reproduction
# Folsomia candida = conditions: chronic/long-term; reproduction
# Rattus norvegicus = conditions: for NOAEL: histopathology: nonneoplastic
# Tagia sp. = conditions: mortality
# Aphidius rhopalosiphi = experiment: LR50; higher = less toxic; conditions: not reported; mortality
smiles,measurement,setting,value
Clc1ccccc1-c1nnc(-c2ccccc2Cl)nn1 [Clofentezine],LD50,Anas platyrhynchos,> 3000 mg/kg-day
same,LD50,Apis mellifera,> 84.5 µg/piece
same,NOEC,Bibionidae,0.5 mg/L
same,NOAEL,Canidae,1.7 mg/kg-day
same,LC50,"Colinus virginianus; acute, oral, diet, mortality",> 4000 mg/kg-day
same,NOEC,Colinus virginianus; reproduction developmental,7.62 mg/kg-day
same,NOEC,Daphnia magna,0.025 mg/L
same,NOEC,Folsomia candida,160 mg/kg
same,LC50,"Oncorhynchus mykiss; acute, duration: 96 hours, mortality",> 0.0146 µg/mL
same,NOEC,"Oncorhynchus mykiss; chronic/long-term, duration: 97 days",0.007 mg/L
same,LD50,"Rattus norvegicus; acute, oral, mortality",> 5200 mg/kg-day
same,NOEC,Rattus norvegicus; chronic,40 mg/kg-day
same,NOAEL,"Rattus norvegicus; chronic, duration: 2 years",2 mg/kg-day
same,NOAEL,"Rattus norvegicus; subchronic, duration: 90 days, oral",2.65 mg/kg-day
same,LC50,Tagia sp.; acute,430 mg/kg
same,NOEC,Tagia sp.; chronic/long-term,5310 mg/kg
same,LR50,Aphidius rhopalosiphi,36.2 g/ha
